Test results from PubChem BioAssay (NCI).
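Dose response: 5 concentrations. Exposure: 48 h. Format: 96-well plates. Endpoint: linear interpolation; highest concentration if not reached. The concentration for full growth arrest is given as TGI.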

Tests used:
Assay in all cases: NCI tumour cell line growth inhibition, 48 h
[1] = test system: 786-0 renal
[2] = test system: A498 renal
[3] = test system: A549 NSCLC
[4] = test system: ACHN renal
[5] = test system: CAKI-1 renal
[6] = test system: CCRF-CEM leukemia
[7] = test system: COLO 205 colon
[8] = test system: DU-145 prostate
[9] = test system: EKVX NSCLC
[10] = test system: HCT-116 colon
[11] = test system: HL-60(TB) leukemia
[12] = test system: HOP-62 NSCLC
[13] = test system: HOP-92 NSCLC
[14] = test system: HS 578T breast
[15] = test system: HT29 colon
[16] = test system: IGROV1 ovarian
[17] = test system: K-562 leukemia
[18] = test system: KM12 colon
[19] = test system: LOX IMVI melanoma
[20] = test system: M14 melanoma
[21] = test system: MALME-3M melanoma
[22] = test system: MCF7 breast
[23] = test system: MDA-MB-231 breast
[24] = test system: MDA-MB-435
[25] = test system: MDA-N
[26] = test system: MOLT-4 leukemia
[27] = test system: NCI-H226 lung
[28] = test system: NCI-H522 lung
[29] = test system: OVCAR-3 ovarian
[30] = test system: OVCAR-4 ovarian
[31] = test system: OVCAR-5 ovarian
[32] = test system: OVCAR-8 ovarian
[33] = test system: PC-3 prostate
[34] = test system: RPMI-8226 leukemia
[35] = test system: RXF 393 renal
[36] = test system: SF-268 CNS
[37] = test system: SF-295 CNS
[38] = test system: SF-539 CNS
[39] = test system: SK-MEL-2 melanoma
[40] = test system: SK-MEL-28 melanoma
[41] = test system: SK-MEL-5 melanoma
[42] = test system: SK-OV-3 ovarian
[43] = test system: SN12C renal
[44] = test system: SNB-19 CNS
[45] = test system: SNB-75 CNS
[46] = test system: SR leukemia
[47] = test system: SW-620 colon
[48] = test system: T-47D breast
[49] = test system: TK-10 renal
[50] = test system: U251 CNS
[51] = test system: UACC-257 melanoma
[52] = test system: UO-31 renal

Measured: TGI

COC(=O)/C=C(\CC(=O)OC)n1nnnc1[C@@H]1C[C@H](COC(c2ccccc2)(c2ccccc2)c2ccccc2)[C@H]2OC(C)(C)O[C@H]21
> 100 µM: [1] | [2] | [3] | [4] | [5] | [6] | [7] | [8] | [9] | [10] | [11] | [12] | [13] | [14] | [15] | [16] | [17] | [18] | [19] | [20] | [21] | [22] | [23] | [24] | [25] | [26] | [27] | [28] | [29] | [30] | [31] | [32] | [33] | [34] | [35] | [36] | [37] | [38] | [39] | [40] | [41] | [42] | [43] | [44] | [45] | [46] | [47] | [48] | [49] | [50] | [51] | [52]
